Experimental data taken from patent US20260327191A1, “GSK3a INHIBITORS AND METHODS OF USE THEREOF” (Blueprint Medicines Corporation, priority 2023, published 2026).

Legend:
[1] = molecular target: T1, human GSK3α (Homo sapiens, UniProt P49840); test: In vitro enzymatic activity assay, GSK3α; format: biochemical; settings: 1.0 mM ATP, 1.0 μM peptide substrate, 120 min, 25° C, read-out: Enzyme GSK3α (IC50)
T1 construct: Full length human GSK3α or GSK3B expressed as N-terminal GST fusion proteins; GST (N); purchased Carna Biosciences (Japan); host or cells: baculovirus host
T1 sequence (P49840 whole entry, the tested form may be a part): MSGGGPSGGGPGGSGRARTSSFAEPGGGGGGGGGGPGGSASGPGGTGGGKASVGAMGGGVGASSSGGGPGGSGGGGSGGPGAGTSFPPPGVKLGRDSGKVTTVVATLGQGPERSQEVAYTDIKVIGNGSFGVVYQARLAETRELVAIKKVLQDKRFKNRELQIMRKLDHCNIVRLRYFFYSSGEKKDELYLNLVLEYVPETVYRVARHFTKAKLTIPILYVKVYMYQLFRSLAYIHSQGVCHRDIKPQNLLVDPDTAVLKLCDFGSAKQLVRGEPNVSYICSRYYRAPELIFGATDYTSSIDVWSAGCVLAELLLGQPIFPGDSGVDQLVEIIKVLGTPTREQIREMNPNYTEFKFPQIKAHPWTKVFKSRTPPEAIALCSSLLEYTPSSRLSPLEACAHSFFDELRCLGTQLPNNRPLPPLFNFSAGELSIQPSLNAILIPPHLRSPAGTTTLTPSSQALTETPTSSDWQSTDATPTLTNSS

[2] = molecular target: T2, GSK3A (Homo sapiens, UniProt P49840); test: NanoBRET cellular target engagement assay, Nanoluc-GSK3A in HEK293 cells; format: cell-based; settings: NanoBRET GSK3α IC50, HEK293 cells, tracer K-8, 2 hours, 37° C
T2 construct: expressed in transfected cells
T2 sequence (P49840 whole entry): as the sequence (P49840 whole entry, the tested form may be a part) above

[3] = molecular target: T3, GSK3B (Homo sapiens, UniProt P49841); test: NanoBRET cellular target engagement assay, Nanoluc-GSK3B in HEK293 cells; format: cell-based; design: expressed in transfected cells; settings: NanoBRET GSK3β IC50, HEK293 cells, tracer K-8, 2 hours, 37° C
T3 sequence (P49841 whole entry, the tested form may be a part): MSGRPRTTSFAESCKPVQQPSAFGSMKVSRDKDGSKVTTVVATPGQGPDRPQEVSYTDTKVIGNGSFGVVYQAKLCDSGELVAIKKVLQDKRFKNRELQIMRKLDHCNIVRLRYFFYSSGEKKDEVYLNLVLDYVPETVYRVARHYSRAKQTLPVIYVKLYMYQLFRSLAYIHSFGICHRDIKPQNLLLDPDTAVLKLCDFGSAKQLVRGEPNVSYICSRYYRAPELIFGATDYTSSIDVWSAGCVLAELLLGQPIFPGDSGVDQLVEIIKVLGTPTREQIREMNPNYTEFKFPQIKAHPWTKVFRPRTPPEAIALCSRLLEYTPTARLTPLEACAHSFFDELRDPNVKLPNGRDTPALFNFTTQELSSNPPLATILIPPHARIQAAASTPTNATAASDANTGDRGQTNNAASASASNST

[4] = molecular target: T3, GSK3B; test: In vitro enzymatic activity assay, GSK3β; format: biochemical; design: Full length human GSK3α or GSK3B expressed as N-terminal GST fusion proteins; GST (N); purchased Carna Biosciences (Japan); host or cells: baculovirus host; settings: 1.0 mM ATP, 1.0 μM peptide substrate, 120 min, 25° C, read-out: Enzyme GSK3β (IC50)

Row | SMILES | IC50 [1] [nM] | IC50 [2] [nM] | IC50 [3] [nM] | IC50 [4] [nM]
1 | CN[C@H](C)c1cccc(NC(=O)c2c(N)ncn(-c3c(C)cc(C(F)(F)F)cc3Cl)c2=O)c1 (atropisomer, axis not shown) [Example 33, 4-amino-1-((S)-2-chloro-6-methyl-4-(trifluoromethyl)phenyl)-N-(3-((R)-1-(methylamino)ethyl)phenyl)-6-oxo-1,6-dihydropyrimidine-5-carboxamide] | 6.4 | 8.3 | 461 | 343
2 | CO[C@H](C)c1cc(C)c(-n2cnc(N)c(C(=O)Nc3cncc([C@@H](C)N)c3)c2=O)c(C)c1 (single isomer, unassigned) [Example 175] | 32.6 | 8.1 | 581 | 803
3 | CCOc1cc(Cl)c(-n2cnc(N)c(C(=O)Nc3cncc(C(C)N)c3)c2=O)c(Cl)c1 (single isomer, unassigned) [Example 137, (R)-4-amino-N-(5-(1-aminoethyl)pyridin-3-yl)-1-(2,6-dichloro-4-ethoxyphenyl)-6-oxo-1,6-dihydropyrimidine-5-carboxamide or (S)-4-amino-N-(5-(1-aminoethyl)pyridin-3-yl)-1-(2,6-dichloro-4-ethoxyphenyl)-6-oxo-1,6-dihydropyrimidine-5-carboxamide] | 1.9 | 1.7 | 87.1 | 129
4 | CCOc1cc(Cl)c(-n2cnc(N)c(C(=O)Nc3cncc(CNCCO)c3)c2=O)c(Cl)c1 [Example 26, 4-amino-1-(2,6-dichloro-4-ethoxyphenyl)-N-(5-(((2-hydroxyethyl)amino)methyl)pyridin-3-yl)-6-oxo-1,6-dihydropyrimidine-5-carboxamide] | 5.5 | 4.4 | 269 | 327
5 | COc1cc(Cl)c(-n2cnc(N)c(C(=O)Nc3cncc(C(N)CC(F)F)c3)c2=O)c(Cl)c1 (single isomer, unassigned) [Example 82, (R)-4-amino-N-(5-(1-amino-3,3-difluoropropyl)pyridin-3-yl)-1-(2,6-dichloro-4-methoxyphenyl)-6-oxo-1,6-dihydropyrimidine-5-carboxamide or (S)-4-amino-N-(5-(1-amino-3,3-difluoropropyl)pyridin-3-yl)-1-(2,6-dichloro-4-methoxyphenyl)-6-oxo-1,6-dihydropyrimidine-5-carboxamide] | 4.5 | 4 | 269 | 248
6 | COc1cc(Cl)c(-n2cnc(N)c(C(=O)Nc3cncc([C@H]4CCC[C@H](C)N4)c3)c2=O)c(Cl)c1 (single isomer, unassigned) [Example 81] | 5.9 | 2.3 | 117 | 314
7 | COc1cc(Cl)c(-n2cnc(N)c(C(=O)Nc3cncc([C@]4(N)CCCOC4)c3)c2=O)c(Cl)c1 (single isomer, unassigned) [Example 187, (R)-4-amino-N-(5-(3-aminotetrahydro-2H-pyran-3-yl)pyridin-3-yl)-1-(2,6-dichloro-4-methoxyphenyl)-6-oxo-1,6-dihydropyrimidine-5-carboxamide or (S)-4-amino-N-(5-(3-aminotetrahydro-2H-pyran-3-yl)pyridin-3-yl)-1-(2,6-dichloro-4-methoxyphenyl)-6-oxo-1,6-dihydropyrimidine-5-carboxamide] | 8.4 | 5.6 | 421 | 357
8 | CN(C)c1cc(Cl)c(-n2cnc(N)c(C(=O)Nc3cncc([C@@H]4CCCCN4)c3)c2=O)c(Cl)c1 [Example 123, (S)-4-amino-1-(2,6-dichloro-4-(dimethylamino)phenyl)-6-oxo-N-(5-(piperidin-2-yl)pyridin-3-yl)-1,6-dihydropyrimidine-5-carboxamide] | 4.8 | 3.3 | 203 | 266
9 | COc1cc(Cl)c(-n2cnc(N)c(C(=O)Nc3cncc([C@@H](C)N)c3)c2=O)c(Cl)c1 (single isomer, unassigned) [Example 74, (R)-4-amino-N-(5-(1-aminoethyl)pyridin-3-yl)-1-(2,6-dichloro-4-methoxyphenyl)-6-oxo-1,6-dihydropyrimidine-5-carboxamide or (S)-4-amino-N-(5-(1-aminoethyl)pyridin-3-yl)-1-(2,6-dichloro-4-methoxyphenyl)-6-oxo-1,6-dihydropyrimidine-5-carboxamide] | 9.6 | 6.6 | 363 | 465
10 | Nc1ncn(-c2c(Cl)cc(F)cc2Cl)c(=O)c1C(=O)Nc1cncc([C@@H]2CCCN2)c1 [Example 149, (S)-4-amino-1-(2,6-dichloro-4-fluorophenyl)-6-oxo-N-(5-(pyrrolidin-2-yl)pyridin-3-yl)-1,6-dihydropyrimidine-5-carboxamide] | 13.4 | 8.6 | 519 | 552
11 | COc1cc(Cl)c(-n2cnc(N)c(C(=O)Nc3cncc([C@@H]4COCCCN4)c3)c2=O)c(Cl)c1 (single isomer, unassigned) [Example 75, (R)-N-(5-(1,4-oxazepan-3-yl)pyridin-3-yl)-4-amino-1-(2,6-dichloro-4-methoxyphenyl)-6-oxo-1,6-dihydropyrimidine-5-carboxamide or (S)-N-(5-(1,4-oxazepan-3-yl)pyridin-3-yl)-4-amino-1-(2,6-dichloro-4-methoxyphenyl)-6-oxo-1,6-dihydropyrimidine-5-carboxamide] | 2.4 | 3.6 | 186 | 106
12 | Cc1cc(CC(F)F)cc(C)c1-n1cnc(N)c(C(=O)Nc2cncc(C(C)N)c2)c1=O (single isomer, unassigned) [Example 144, (R)-4-amino-N-(5-(1-aminoethyl)pyridin-3-yl)-1-(4-(2,2-difluoroethyl)-2,6-dimethylphenyl)-6-oxo-1,6-dihydropyrimidine-5-carboxamide or (S)-4-amino-N-(5-(1-aminoethyl)pyridin-3-yl)-1-(4-(2,2-difluoroethyl)-2,6-dimethylphenyl)-6-oxo-1,6-dihydropyrimidine-5-carboxamide] | 11 | 5 | 375 | 472
13 | C[C@H](N)c1cncc(NC(=O)c2c(N)ncn(-c3c(Cl)cc(C#N)cc3Cl)c2=O)c1 (single isomer, unassigned) [Example 43, (S)-4-amino-N-(5-(1-aminoethyl)pyridin-3-yl)-1-(2,6-dichloro-4-cyanophenyl)-6-oxo-1,6-dihydropyrimidine-5-carboxamide or (R)-4-amino-N-(5-(1-aminoethyl)pyridin-3-yl)-1-(2,6-dichloro-4-cyanophenyl)-6-oxo-1,6-dihydropyrimidine-5-carboxamide] | 4.9 | 5.4 | 285 | 283
14 | Nc1ncn(-c2c(Cl)cc(C(F)F)cc2Cl)c(=O)c1C(=O)Nc1cncc([C@@H]2CCCCN2)c1 [Example 56, (S)-4-amino-1-(2,6-dichloro-4-(difluoromethyl)phenyl)-6-oxo-N-(5-(piperidin-2-yl)pyridin-3-yl)-1,6-dihydropyrimidine-5-carboxamide] | 5.7 | 4.8 | 273 | 323
15 | CCNCc1cncc(NC(=O)c2c(N)ncn(-c3c(Cl)cc(C(=O)OC)cc3Cl)c2=O)c1 [Example 198, methyl 4-(4-amino-5-((5-((ethylamino)methyl)pyridin-3-yl)carbamoyl)-6-oxopyrimidin-1 (6H)-yl)-3,5-dichlorobenzoate] | 5.6 | 3.7 | 209 | 332
16 | COCc1cc(C)c(-n2cnc(N)c(C(=O)Nc3cncc(C4CNC(=O)CN4)c3)c2=O)c(C)c1 (single isomer, unassigned) [Example 159, (R)-4-amino-1-(4-(methoxymethyl)-2,6-dimethylphenyl)-6-oxo-N-(5-(5-oxopiperazin-2-yl)pyridin-3-yl)-1,6-dihydropyrimidine-5-carboxamide or (S)-4-amino-1-(4-(methoxymethyl)-2,6-dimethylphenyl)-6-oxo-N-(5-(5-oxopiperazin-2-yl)pyridin-3-yl)-1,6-dihydropyrimidine-5-carboxamide] | 90.6 | 76.9 | 5790 | 2080
17 | Nc1ncn(-c2c(Cl)cc(C(F)(F)F)cc2Cl)c(=O)c1C(=O)Nc1cncc([C@@H]2CCCN2)c1 [Example 118, (S)-4-amino-1-(2,6-dichloro-4-(trifluoromethyl)phenyl)-6-oxo-N-(5-(pyrrolidin-2-yl)pyridin-3-yl)-1,6-dihydropyrimidine-5-carboxamide] | 11.2 | 9.4 | 566 | 450
18 | CCOC[C@H](N)c1cncc(NC(=O)c2c(N)ncn(-c3c(Cl)cc(COC)cc3Cl)c2=O)c1 (single isomer, unassigned) [Example 69, (R)-4-amino-N-(5-(1-amino-2-ethoxyethyl)pyridin-3-yl)-1-(2,6-dichloro-4-(methoxymethyl)phenyl)-6-oxo-1,6-dihydropyrimidine-5-carboxamide or (S)-4-amino-N-(5-(1-amino-2-ethoxyethyl)pyridin-3-yl)-1-(2,6-dichloro-4-(methoxymethyl)phenyl)-6-oxo-1,6-dihydropyrimidine-5-carboxamide] | 12.5 | 7 | 513 | 536
